# Data published in patent US10420753B2, “Combination therapies for treatment of spinal muscular atrophy” (Indiana University Research and Technology Corporation, priority 2016, dated 2019).
# Key:
# [1] = system: SMN2 reporter (SMN2-luciferase) in HEK293 cells; assay: SMN2-luciferase reporter assay; type: cell-based, human; design: % Activation: concentration or dose not given beside the values; details: for EC50: Homo sapiens, HEK293; for % Activation: percentage increase over basal expression in DMSO control wells
# Protocol: (§1) In this high throughput screening assay, the SMN promoter was combined with exons 1-6 and an exon 7 splicing cassette in a single construct that should respond to compounds that increase SMN transcription, exon 7 inclusion, or that might stabilize the SMN RNA or protein. A stable clonal HEK293 cell line that expresses the SMN2 reporter was isolated. Particularly, cells were incubated at 37° C. with 5% CO2. HEK-293 cells were cultured in D-MEM (Gibco 11995) with 10% fetal bovine serum (FBS; Atlas) and 1× pen-strep (Gibco 15140). Reporter cell lines containing SMN1, SMN2, or SV40 driven firefly luciferase reporters and a control (renilla luciferase reporter) were selected and maintained in D-MEM with 10% FBS and 1× pen-strep with 200 μg/mL hygromycin B (Invitrogen 10687-010). 3813 and 3814 fibroblasts were cultured in D-MEM (Gibco 11995) with 10% fetal bovine serum (FBS; Atlas) and 1× pen-strep (Gibco 15140).
# The HEK293 reporter cell lines were then plated at 50,000 cells per well in 96-well plates and incubated overnight. […] The final DMSO concentration was 0.1%. Luciferase activity was assayed with either SteadyGlo (Promega E2510) or DualGlo (Promega E2920) luciferase using the Pherastar FS (BMG Labtech) plate reader. For detailed assay conditions, see Table 4. All data points were transformed from light units to percentage increase over basal expression in the treated control wells (DMSO concentration as appropriate, usually 0.1%) and expressed as percent activation (FIG. 1A). […]
# [2] = system: SMN protein in patient-derived fibroblasts (3813 cells; SMN1-/-SMN2+/+); assay: SMN protein detection in patient fibroblasts by Western blot; type: cell-based, human; details: 3813 fibroblasts, 48 hours, dose dependent, relative to DMSO control
# Protocol: For detection of SMN protein in patient fibroblasts, 8000 cells per cm^2 were plated 24 hours prior to compound addition. Since SMN is expressed ubiquitously, cells containing even one copy of the human SMN1 gene will mask the effects of compounds on expression from the SMN2 gene. SMN null cells are not viable. The current standard is to use a human cell line derived from a severe SMA patient. The fibroblast strain 3813 is SMN1 null with three copies of SMN2. […] SMN protein levels were analyzed by dose response in quantitative immunoblots with statistical analysis by one-way ANOVA with post-hoc analysis using Dunnett or Bonferroni, as appropriate. […] Quantification of protein was performed with the Fujifilm LAS-4000 Multifunctional Imaging System. The signal intensity was measured for each band on an immunoblot, normalized to the loading control, and the fold increase was determined in relation to the appropriate DMSO-treated control. Treatment of patient-derived fibroblasts (3813 cells; SMN1−/−SMN2+/+) with compound 291-88-1 gave a dose dependent 2-3 fold increase of SMN protein expression as determined by Western blot analysis (FIG. 1B).
# renilla luciferase = assay: Renilla luciferase control in cycloheximide experiment; type: cell-based; details: 10 μM compound plus 10 μM cycloheximide
# Protocol: as §1
# To investigate the mechanism of action of LDN291-88-1, the HEK293 SMN2 reporter cells were exposed to LDN291-88-1 at a concentration of 10 μM plus 10 μM cycloheximide to block new protein synthesis, or the same concentration of cycloheximide plus DMSO for comparison. Cell lysates were prepared at the times indicated up to 24 hours as in FIGS. 3A & 3B. The amount of SMN-luciferase protein was quantified by luciferase assay and plotted versus time. […]
# SMNΔ7 SMA mice = assay: Survival of SMA mice; type: in vivo; details: 10 mg/kg IP daily
# Protocol: Compound 291-88-1 was administered either by intraperitoneal (IP) administration into the SMA mice SMNΔ7 FVB.SMNΔ7; SMN2; Smn (Jackson Laboratories 005025). Daily treatment of SMNΔ7 animals with 10 mg/kg (IP) was continued as long as feasible. The lifespan of treated animals was compared to that of untreated animals and vehicle (VH) treated animals (FIG. 13). VH treated animals included treatment with 40% PEG400+60% (10% HP-β-CD in water). […] Treatment with compound 291-88-1 increased median survival to 18.5 days, p<0.0001.
# [3] = system: total SMN protein in brain extracts; assay: Brain SMN protein in treated mice, Western blot; type: in vivo; details: once daily subcutaneous or oral for 5 days from PND2, tissues PND7, dose-dependent
# Protocol: Animals were treated once daily (subcutaneous injection or oral) for 5 days, starting on postnatal day 2 (PND) with increasing doses of 291-88-1. On PND7, mice were sacrificed and tissues were harvested. Tissues were harvested from treated animals on PND 7 and compared to tissues from non-transgenic control mice (FVB) and VH (vehicle: PEG:PBS 50:50) treated animals. Brain extracts were assayed for total SMN protein in comparison to the housekeeping genes, actin and GAPDH (FIGS. 14 and 15, respectively). There was a dose-dependent increase in SMN protein levels ranging from 2-3 fold.
SMILES,EC50 [1] [µM],% Activation [1] [%],other results
O=C(Nc1nc2ncc(C(F)(F)F)cc2s1)c1ccccn1 [Compound 287-51-1],1,110,
O=C(Nc1nc2ncc(C(F)(F)F)cc2s1)c1ccccc1 [Compound 287-98-2],2.3,150,
O=C(Nc1nc2cnc(C(F)(F)F)cc2s1)c1ccccc1 [Compound 291-88-1],0.169,216,"increase of SMN protein expression [2]: 2-3 fold; maximal increase in SMN-luciferase greater than the DMSO control ([1]; 48 hours, 3 μM): 400%; effect on renilla luciferase (renilla luciferase): no effect; median survival (SMNΔ7 SMA mice): 18.5 days; increase in SMN protein levels in brain [3]: 2-3 fold"
O=C(Nc1nc2cnc(Cl)cc2s1)c1ccccc1 [Compound 299-1-1],2.02,154,
O=C(Nc1nc2ncc(C(F)(F)F)cc2s1)c1cscn1 [Compound 299-9-1],1.22,154,
O=C(Nc1nc2ncc(C(F)(F)F)cc2s1)c1cncs1 [Compound 299-10-1],3.2,112,
O=C(Nc1nc2cnc(C(F)(F)F)cc2s1)c1ccccn1 [Compound 299-15-1],0.172,169.5,
O=C(Nc1nc2cnc(C(F)(F)F)cc2s1)c1cccnc1 [Compound 299-16-1],0.154,177,
O=C(Nc1nc2cnc(C(F)(F)F)cc2s1)c1cnco1 [Compound 299-53-1],4.4,200,
O=C(Nc1nc2cnc(C(F)(F)F)cc2s1)c1cocn1 [Compound 299-54-1],1.14,208,
O=C(Nc1nc2cnc(C(F)(F)F)cc2s1)c1ccon1 [Compound 299-55-1],0.245,245,
O=C(Nc1nc2cnc(C(F)(F)F)cc2s1)c1ccnnc1 [Compound 299-63-1],11.3,163,
O=C(Nc1nc2cnc(C(F)(F)F)cc2s1)c1ccncn1 [Compound 299-73-1],2.68,162,
O=C(Nc1nc2cnc(C(F)(F)F)cc2s1)c1cncs1 [Compound 299-93-1],0.142,140,
O=C(Nc1nc2cnc(C(F)(F)F)cc2o1)c1ccccc1 [Compound 301-62-1],1.25,80,
O=C(Nc1nc2cnc(C(F)(F)F)cc2s1)c1cncnc1 [Compound 301-90-1],2.7,170,
O=C(Nc1nc2cnc(C(F)(F)F)cc2s1)c1ccc(F)cc1 [Compound 311-65],0.612,87.5,
O=C(Nc1nc2cnc(C(F)(F)F)cc2s1)c1cscn1 [Compound 311-84],0.62,270,
O=C(Nc1nc2cnc(C(F)(F)F)cc2s1)c1nccs1 [Compound 311-85],0.163,218,
COc1cc2sc(NC(=O)c3ccccc3)nc2cn1 [Compound 324-2-1],0.675,150,
O=C(Nc1nc2cnc(C(F)(F)F)cc2s1)c1cc[nH]n1 [Compound 324-25-1],2.04,178,
O=C(Nc1nc2cnc(C(F)(F)F)cc2s1)c1ccno1 [Compound 324-26-1],0.214,193,
Cc1cc(C(=O)Nc2nc3cnc(C(F)(F)F)cc3s2)no1 [Compound 324-33-1],5.4,110,
O=C(Nc1nc2cnc(C(F)(F)F)cc2s1)c1ccns1 [Compound 324-36-1],0.064,198,
O=C(Nc1nc2cnc(C(F)(F)F)cc2s1)c1cnsc1 [Compound 324-44-1],0.38,220,
O=C(Nc1nc2cnc(C(F)(F)F)cc2s1)c1ccsn1 [Compound 324-48-1],0.335,210,
"O=C(Nc1nc2cnc(C(F)(F)F)cc2s1)c1ncco1 [N-(6-trifluoromethyl)thiazolo[4,5-c]pyridin-2-yl)oxazole-2-carboxamide]",1.3,74,
